One block for each molecule: values may come before it.
Tests used:
[1] = tested on: SK-BR-3, BT-474, MDA-MB-231, NCI-H1975, NCI-N87 and MKN-74; experiment: cancer cell proliferation inhibition for each concentration, WST-1 assay (TPP-DOX series); assay type: cell-based, human; conditions: 0.01 to 2 μM, 144 hours, versus untreated group (NC)
Procedure: (§1) After culturing for 24 hours, each cell was treated with TPP-DOX or TPP-DOX_MT^α-HER2scFv at a concentration of 2 μM, 1 μM, 0.5 μM, 0.25 μM, 0.1 μM, 0.05 μM, 0.025 μM and 0.01 μM. […] At this time, the mitochondria-only treated group (MT, MT^α-HER2scFv) was used as a negative control for TPP-DOX MT^α-HER2scFv.

[2] = tested on: human lung fibroblast cell lines WI-38 and CCD-8Lu; experiment: proliferation inhibition in normal cells for each concentration, WST-1 assay (TPP-DOX series); assay type: cell-based; conditions: 0.01 to 2 μM, 144 hours
Procedure: as §1, with “Specifically, the human lung fibroblast cell lines WI-38 and CCD-8Lu were inoculated into a 96-well plate at about 3×10^3 cells/well, respectively, and cultured for 24 hours. At this time, WI-38 and CCD-8Lu were cultured in DMEM medium containing 10% FBS. After” for “After”

[3] = tested on: lung fibroblast cell line (CCD-8Lu and WI-38); experiment: proliferation inhibition at the same concentration, WST-1 assay, normal cells (TPP-DOX series); assay type: cell-based, human; conditions: 0.5 μM, 144 hours
Procedure: At this time, the mitochondria-only treated group (MT^α-HER2scFv) was used as a negative control for TPP-DOX_MT^α-HER2scFv. Statistical processing was performed using Graphpad 5.0 software, and p values were measured with one-way ANOVA (Turkey's) test (*p<0.05, **p<0.01 and ***p<0.001).

[4] = tested on: HER2^+ human gastric cancer cell line NCI-N87 xenograft; experiment: anticancer activity in NCI-N87 xenograft tumor mouse model; assay type: in vivo; conditions: 4 μg intravenously
Procedure: 5-week-old BALB/c male nude mice (initial body weight of 18˜20 g) (Nara Biotech) were acclimatized for 1 week, and then HER2^+ human gastric cancer cell line NCI-N87 was subcutaneously transplanted into the lateral abdomen at 1×10^7 cells/mouse to construct a xenograft tumor model mouse. […] The tumor size was measured at an interval of 2˜4 days, and after 25 days from the start of administration, the tumor tissues were extracted, and the size and weight were measured (FIG. 65).

[5] = tested on: mouse melanoma cell line B16F10 overexpressing human HER2, allograft; experiment: anticancer activity of TPP-DOX_MT^α-HER2scFv in allograft tumor mouse model; assay type: in vivo; conditions: MT^α-HER2scFv 20 μg, TPP-DOX 5 μg, TPP-DOX/MT 5 μg/20 μg, intravenously 3 times a week for 3 weeks
Procedure: 7-week-old C57BL/6 female mice (Samtako Bio Korea) were acclimatized for 1 week, and then the mouse melanoma cell line B16F10 was subcutaneously transplanted into the lateral abdomen of the mice at about 5×10^5 cells/mouse to construct an allograft tumor mouse. […] When the average volume of the tumor reached 100˜200 mm^3, the mice were divided into 4 groups of 3 mice per test group, and MT^α-HER2scFv (20 μg), TPP-DOX (5 μg) or TPP-DOX_MT^α-HER2scFv (TPP-DOX/MT: 5 μg/20 μg) was intravenously administered 3 times a week for 3 weeks. The tumor size was measured 3 times a week, and after the end of the experiment (after 3 weeks from the start of administration), the tumor tissues of the mice were extracted, and the size and weight were measured (FIG. 69).

[6] = tested on: SK-BR-3, BT-474, MDA-MB-231, NCI-H1975, NCI-N87 and MKN-74; experiment: cancer cell proliferation inhibition for each concentration, WST-1 assay (DOX series); assay type: cell-based, human; conditions: 0.01 to 2 μM, 144 hours, versus untreated group (NC)
Procedure: Specifically, the human breast cancer (SK-BR-3, BT-474 and MDA-MB-231), lung cancer (NCI-H1975) and gastric cancer (NCI-N87 and MKN-74) cell lines were inoculated into a 96-well plate at about 3×10^3 cells/well, respectively, and cultured for 24 hours. At this time, SK-BR-3, BT-474 and NCI-N87 cells were cultured in RPMI-1640 medium containing 10% FBS, and MDA-MB-231, NCI-H1975 and MKN-74 cells were cultured in DMEM medium containing 10% FBS. After culturing for 24 hours, each cell was treated with doxorubicin (DOX) or DOX_MT^α-HER2scFv at a concentration of 2 μM, 1 μM, 0.5 μM, 0.25 μM, 0.1 μM, 0.05 μM, 0.025 μM, and 0.01 μM. After 144 hours of sample treatment, cell proliferation was measured by WST-1 assay.

[7] = tested on: human lung fibroblast cell lines WI-38 and CCD-8Lu; experiment: proliferation inhibition in normal cells for each concentration, WST-1 assay (DOX series); assay type: cell-based; conditions: 0.01 to 2 μM, 144 hours
Procedure: 200 μg of MT^α-HER2scFv and 100 μM doxorubicin (DOX) were reacted in the same manner as in Preparation Example 2 above. In order to confirm the influence of the obtained DOX_MT^α-HER2scFv on cell proliferation in normal cells, the cell proliferation inhibitory effect by treatment with DOX_MT^α-HER2scFv in human lung fibroblasts was evaluated.
Specifically, the human lung fibroblast cell lines WI-38 and CCD-8Lu were inoculated into a 96-well plate at about 3×10^3 cells/well, respectively, and cultured for 24 hours. At this time, WI-38 and CCD-8Lu were cultured in DMEM medium containing 10% FBS. After culturing for 24 hours, each cell was treated with doxorubicin (DOX) or DOX_MT^α-HER2scFv at a concentration of 2 μM, 1 μM, 0.5 μM, 0.25 μM, 0.1 μM, 0.05 μM, 0.025 μM, and 0.01 μM. After 144 hours of sample treatment, cell proliferation was measured by WST-1 assay.

[8] = tested on: SK-BR-3, BT-474, MDA-MB-231, NCI-H1975, MKN-74 and NCI-N87; experiment: proliferation inhibition at the same concentration, WST-1 assay, cancer cells (DOX series); assay type: cell-based; conditions: Homo sapiens, 144 hours, read-out: cell proliferation inhibitory effect compared to the untreated group, cancer cells
Procedure: (§2) 200 μg of MT^α-HER2scFv and 100 μM doxorubicin (DOX) were reacted in the same manner as in Preparation Example 2 above. In order to compare the influence of the obtained DOX_MT^α-HER2scFv on cell proliferation in cancer cells and normal cells, after treatment with DOX_MT^α-HER2scFv at the same concentration in the human breast cancer, lung cancer, gastric cancer cell lines and the lung fibroblast cell line, the cell proliferation inhibitory ability was measured.
(§3) Specifically, the human breast cancer (SK-BR-3, BT-474 and MDA-MB-231), lung cancer (NCI-H1975), gastric cancer (MKN-74 and NCI-N87) cell lines and the lung fibroblast cell line (CCD-8Lu and WI-38) were inoculated into a 96-well plate at about 3×10^3 cells/well, respectively, and cultured for 24 hours. At this time, SK-BR-3, BT-474 and NCI-N87 cells were cultured in RPMI-1640 medium containing 10% FBS. MDA-MB-231, NCI-H1975, MKN-74, CCD-8Lu, and WI-38 cells were cultured in DMEM medium containing 10% FBS. After culturing for 24 hours, the cells were treated with 0.5 μM doxorubicin (DOX) or DOX_MT^α-HER2scFv respectively, and after 144 hours, the cell proliferation inhibitory ability was evaluated by WST-1 assay. […] Statistical processing was performed using Graphpad 5.0 software, and p values were measured with one-way ANOVA (Turkey's) test (*p<0.05, **p<0.01, and ***p<0.001).

[9] = tested on: lung fibroblast cell line (CCD-8Lu and WI-38); experiment: proliferation inhibition at the same concentration, WST-1 assay, normal cells (DOX series); assay type: cell-based; conditions: Homo sapiens, 144 hours, read-out: cell proliferation inhibitory effect compared to the untreated group, normal cells
Procedure: as §2, §3

[10] = tested on: mouse melanoma cell line B16F10 overexpressing human HER2, allograft; experiment: anticancer activity of DOX_MT^α-HER2scFv in allograft tumor animal model; assay type: in vivo; conditions: MT^α-HER2scFv 20 μg, DOX 4 μg, DOX_MT^α-HER2scFv 4 μg/20 μg, intravenously 3 times a week for 3 weeks
Excerpt: 7-week-old C57BL/6 female mice (Samtako Bio Korea) were acclimatized for 1 week, and then the mouse melanoma cell line B16F10 was subcutaneously transplanted into the lateral abdomen of the mice at about 5×10^5 cells/mouse to construct an allograft tumor mouse. At this time, B16F10 cells in which the human HER2 gene was overexpressed using lentivirus were used as B16F10 cells. When the average volume of the tumor reached 100˜200 mm^3, the mice were divided into 4 groups of 3 mice per test group, and MT^α-HER2scFv (20 μg), DOX (4 μg) or DOX_MT^α-HER2scFv (TPP-DOX/MT: 4 μg/20 μg) was intravenously administered 3 times a week for 3 weeks. The tumor size was measured 3 times a week, and after the end of the experiment (after 3 weeks from the start of administration), the tumor tissues of the mice were extracted, and the size and weight were measured (FIG. 73).

PDL1 = biological target: T1, PDL1 (human, UniProt Q9NZQ7 19-290); experiment: confocal microscopy, MitoTracker Red-stained scFv-fused mitochondria on co-cultured BXPC-3 (PDL1+) and CFPAC-1 (PDL1-) cells
T1 construct: whole, on cells; also called PDL1 antigen
Procedure: Mitochondria to be used as samples were prepared by treating untreated HEK293 cells (MT) and HEK293 cells comprising mitochondria fused with an anti-PDL1scFv antibody (MT^{α-PDL1scFv}) with MitoTracker Red to stain the mitochondria, and then isolating the mitochondria. After co-culture for 24 hours, each isolated mitochondrion was treated with the co-cultured cells and reacted for 24 hours (FIG. 47).
The cells treated in the same manner as in Example 4 above were washed once with PBS, and fixed by adding 3.7% formaldehyde at room temperature for 30 minutes, and then immunocytochemistry staining was performed. At this time, an anti-PDL1 antibody (Cell signaling, 86744) was used as a primary antibody, and Alexa Fluor 488 goat anti-rabbit IgG (H+L) was used as a secondary antibody. The nuclei of the cells were observed by staining with DAPI.

T1 sequence (Q9NZQ7 19-290): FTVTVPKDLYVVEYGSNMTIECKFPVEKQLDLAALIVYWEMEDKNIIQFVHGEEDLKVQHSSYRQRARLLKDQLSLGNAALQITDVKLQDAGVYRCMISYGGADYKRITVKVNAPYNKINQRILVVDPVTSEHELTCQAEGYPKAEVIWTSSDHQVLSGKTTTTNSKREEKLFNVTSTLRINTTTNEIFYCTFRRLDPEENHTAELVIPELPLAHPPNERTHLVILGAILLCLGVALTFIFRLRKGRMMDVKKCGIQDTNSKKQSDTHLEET

Molecule: triphenylphosphonium (TPP)-doxorubicin [TPP-DOX]
cell proliferation inhibitory effect [1]: inhibited in a concentration-dependent manner
cell proliferation inhibitory ability in normal cells [2]: weaker than that of cancer cells
proliferation inhibitory ability, normal cells [3]: weak
tumor size by date compared to the control group (CTR) [4]: similar
tumor size compared to the control group (CTR) [5]: similar

Molecule: COc1cccc2c1C(=O)c1c(O)c3c(c(O)c1C2=O)C[C@@](O)(C(=O)CO)C[C@@H]3O[C@H]1C[C@H](N)[C@H](O)[C@H](C)O1 [DOX, doxorubicin]
cell proliferation inhibitory effect [6]: inhibited in a concentration-dependent manner
cell proliferation inhibitory ability in normal cells [7]: weaker than that of cancer cells
inhibition at 0.5 µM [8]: 50 to 80%
inhibition at 0.5 µM [9]: ≤ 25%
tumor size compared to the control group (CTR) [10]: significantly reduced

binding result (PDL1): binds
B1: anti-PDL1scFv antibody fused to the mitochondrial outer membrane (scFvPDL1-myc-TOM7) (scFv)
scFv: MDIVMSQSPSSLAVSAGEKVTMSCKSSQSLLNSRTRKNYLAWYQQKPGQSPKLLIYWASTRESGVPDRFTGSGSGTDFTLTISSVQAEDLAVYYCQQSYDVVTFGAGTKLELKGGGGSGGGGSGGGGSQVQVQQSGAELAEPGASVKMSCKASGYIFTSYWMHWLKQRPGQGLEWIGYINPSSDYNEYSEKFMDKATLTADKASTTAYMQLISLTSEDSAVYYCARSGWLVHGDYYFDYWGQGTTLTVSSEQKLISEEDLVKLSKEAKQRLQQLFKGSQFAIRWGFIPLVIYLGFKRGADPGMPEPTVLSLLWG
notes: In the assay the fusion protein was anchored on the outer membrane of mitochondria isolated from HEK293 cells (MT^α-PDL1scFv); also called MT^α-PDL1scFv; single chain variable region fragment of an anti-PDL1 antibody

— US20230372529A1, “MITOCHONDRIA COMPRISING ANTICANCER DRUG AND USE THEREOF” (Paean Biotechnology Inc., priority 2020, published 2023)
